# Results from ChEMBL document CHEMBL1201862, “PubChem BioAssay data set” (2004).
#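 These data come from cells grown in 96-well plates and exposed to compound for 48 hours at five concentrations. The concentration for 50% growth inhibition is given as GI50.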 Activity calls are given as the source filed them. No stated cut-off is given here; in the data, active = GI50 up to about 1.1 µM and inactive = higher.
# Columns and labels:
# Experiment in all cases: DTP human tumour cell line panel, 48 h
# [1] = tested on: 786-0
# [2] = tested on: A549
# [3] = tested on: ACHN
# [4] = tested on: CAKI-1
# [5] = tested on: DLD-1
# [6] = tested on: DMS-273
# [7] = tested on: EKVX
# [8] = tested on: HCC 2998
# [9] = tested on: HCT-116
# [10] = tested on: HCT-15
# [11] = tested on: HOP-62
# [12] = tested on: HOP-92
# [13] = tested on: HT-29
# [14] = tested on: IGROV-1
# [15] = tested on: KM-20L2
# [16] = tested on: KM12
# [17] = tested on: LOX IMVI
# [18] = tested on: LXFL 529
# [19] = tested on: M14
# [20] = tested on: M19-MEL
# [21] = tested on: NCI-H23
# [22] = tested on: NCI-H460
# [23] = tested on: NCI-H522
# [24] = tested on: OVCAR-3
# [25] = tested on: OVCAR-4
# [26] = tested on: OVCAR-8
# [27] = tested on: SF-268
# [28] = tested on: SF-295
# [29] = tested on: SF-539
# [30] = tested on: SK-MEL-28
# [31] = tested on: SK-MEL-2
# [32] = tested on: SK-MEL-5
# [33] = tested on: SN12C
# [34] = tested on: SNB-19
# [35] = tested on: SNB-78
# [36] = tested on: SW-620
# [37] = tested on: TK-10
# [38] = tested on: U-251
# [39] = tested on: UACC-257
# [40] = tested on: UACC-62
# [41] = tested on: UO-31
# [42] = tested on: A498
# [43] = tested on: BT-549
# [44] = tested on: CCRF-CEM
# [45] = tested on: COLO 205
# [46] = tested on: DMS-114
# [47] = tested on: HL-60
# [48] = tested on: HOP-18
# [49] = tested on: Hs-578T
# [50] = tested on: MCF7
# [51] = tested on: MOLT-4
# [52] = tested on: Malme-3M
# [53] = tested on: NCI/ADR-RES
# [54] = tested on: OVCAR-5
# [55] = tested on: PC-3
# [56] = tested on: RPMI-8226
# [57] = tested on: DU-145
# [58] = tested on: K562
# [59] = tested on: MDA-MB-231
# [60] = tested on: MDA-MB-435
# [61] = tested on: MDA-N
# [62] = tested on: NCI-H226
# [63] = tested on: RXF 393
# [64] = tested on: SNB-75
# [65] = tested on: SR
# [66] = tested on: T47D
# [67] = tested on: XF498
smiles,measurement,setting,value
Cc1ccc(C(=O)NC(C)C)cc1/N=N/N(C)C,GI50,[1],> 100 µM (inactive)
same,GI50,[2],> 100 µM (inactive)
same,GI50,[3],> 100 µM (inactive)
same,GI50,[4],> 100 µM (inactive)
same,GI50,[5],65 µM (inactive)
same,GI50,[6],> 100 µM (inactive)
same,GI50,[7],> 100 µM (inactive)
same,GI50,[8],> 100 µM (inactive)
same,GI50,[9],> 100 µM (inactive)
same,GI50,[10],> 100 µM
same,GI50,[11],> 100 µM (inactive)
same,GI50,[12],> 100 µM (inactive)
same,GI50,[13],> 100 µM (inactive)
same,GI50,[14],> 100 µM (inactive)
same,GI50,[15],> 100 µM (inactive)
same,GI50,[16],> 100 µM (inactive)
same,GI50,[17],> 100 µM (inactive)
same,GI50,[18],> 100 µM (inactive)
same,GI50,[19],> 100 µM (inactive)
same,GI50,[20],> 100 µM (inactive)
same,GI50,[21],> 100 µM (inactive)
same,GI50,[22],> 100 µM (inactive)
same,GI50,[23],> 100 µM (inactive)
same,GI50,[24],> 100 µM (inactive)
same,GI50,[25],> 100 µM (inactive)
same,GI50,[26],> 100 µM (inactive)
same,GI50,[27],> 100 µM (inactive)
same,GI50,[28],> 100 µM (inactive)
same,GI50,[29],> 100 µM (inactive)
same,GI50,[30],> 100 µM (inactive)
same,GI50,[31],> 100 µM (inactive)
same,GI50,[32],> 100 µM (inactive)
same,GI50,[33],> 100 µM (inactive)
same,GI50,[34],> 100 µM (inactive)
same,GI50,[35],> 100 µM (inactive)
same,GI50,[36],> 100 µM (inactive)
same,GI50,[37],> 100 µM (inactive)
same,GI50,[38],> 100 µM (inactive)
same,GI50,[39],> 100 µM (inactive)
same,GI50,[40],> 100 µM (inactive)
same,GI50,[41],> 100 µM (inactive)
COc1cc(CNc2ccc(SC)cc2)cc(OC)c1OC,GI50,[1],14.6 µM (inactive)
same,GI50,[42],22 µM (inactive)
same,GI50,[2],10 µM (inactive)
same,GI50,[43],3.18 µM (inactive)
same,GI50,[44],12.2 µM (inactive)
same,GI50,[45],4.48 µM (inactive)
same,GI50,[46],5.15 µM (inactive)
same,GI50,[6],3.08 µM (inactive)
same,GI50,[7],49.7 µM (inactive)
same,GI50,[9],6.93 µM (inactive)
same,GI50,[10],4.08 µM
same,GI50,[47],4.84 µM (inactive)
same,GI50,[48],33.5 µM (inactive)
same,GI50,[13],4.39 µM (inactive)
same,GI50,[49],12.4 µM (inactive)
same,GI50,[15],4.3 µM (inactive)
same,GI50,[17],9.42 µM (inactive)
same,GI50,[18],18.4 µM (inactive)
same,GI50,[19],4.38 µM (inactive)
same,GI50,[50],5.69 µM (inactive)
same,GI50,[51],4.85 µM (inactive)
same,GI50,[52],11 µM (inactive)
same,GI50,[22],7.1 µM (inactive)
same,GI50,[23],4.92 µM (inactive)
same,GI50,[53],3.78 µM (inactive)
same,GI50,[24],7.26 µM (inactive)
same,GI50,[25],46.9 µM (inactive)
same,GI50,[54],32.1 µM (inactive)
same,GI50,[55],12.4 µM (inactive)
same,GI50,[56],11.9 µM (inactive)
same,GI50,[31],4.88 µM (inactive)
same,GI50,[35],48.3 µM (inactive)
same,GI50,[36],4.02 µM (inactive)
same,GI50,[41],20 µM (inactive)
CC(C)(C)c1cc(C=C(C#N)C#N)cc(C(C)(C)C)c1O [TYRPHOSTIN A9],GI50,[1],0.652 µM (active)
same,GI50,[42],0.277 µM (active)
same,GI50,[2],0.316 µM (active)
same,GI50,[3],0.356 µM (active)
same,GI50,[43],0.316 µM (active)
same,GI50,[4],0.738 µM (active)
same,GI50,[44],0.33 µM (active)
same,GI50,[5],0.828 µM (active)
same,GI50,[46],0.179 µM (active)
same,GI50,[6],0.736 µM (active)
same,GI50,[57],0.372 µM (active)
same,GI50,[8],0.456 µM (active)
same,GI50,[9],0.277 µM (active)
same,GI50,[10],0.366 µM
same,GI50,[47],0.329 µM (active)
same,GI50,[11],0.405 µM (active)
same,GI50,[12],0.0527 µM (active)
same,GI50,[13],0.375 µM (active)
same,GI50,[49],0.384 µM (active)
same,GI50,[14],0.682 µM (active)
same,GI50,[58],0.305 µM (active)
same,GI50,[15],4.61 µM (inactive)
same,GI50,[16],0.395 µM (active)
same,GI50,[17],0.641 µM (active)
same,GI50,[18],0.518 µM (active)
same,GI50,[19],0.944 µM (active)
same,GI50,[50],0.391 µM (active)
same,GI50,[59],1.56 µM (inactive)
same,GI50,[60],0.76 µM (active)
same,GI50,[61],0.608 µM (active)
same,GI50,[51],0.374 µM (active)
same,GI50,[52],0.439 µM (active)
same,GI50,[62],1.34 µM (inactive)
same,GI50,[21],0.809 µM (active)
same,GI50,[22],0.171 µM (active)
same,GI50,[23],0.126 µM (active)
same,GI50,[53],0.299 µM (active)
same,GI50,[24],0.258 µM (active)
same,GI50,[25],0.724 µM (active)
same,GI50,[54],4.03 µM (inactive)
same,GI50,[26],0.303 µM (active)
same,GI50,[55],0.256 µM (active)
same,GI50,[63],2.55 µM (inactive)
same,GI50,[27],0.344 µM (active)
same,GI50,[28],0.455 µM (active)
same,GI50,[29],0.259 µM (active)
same,GI50,[30],3.2 µM (inactive)
same,GI50,[31],0.365 µM (active)
same,GI50,[32],0.376 µM (active)
same,GI50,[33],0.191 µM (active)
same,GI50,[34],0.392 µM (active)
same,GI50,[64],0.857 µM (active)
same,GI50,[65],0.396 µM (active)
same,GI50,[36],0.546 µM (active)
same,GI50,[66],0.135 µM (active)
same,GI50,[37],2.05 µM (inactive)
same,GI50,[38],0.692 µM (active)
same,GI50,[39],0.281 µM (active)
same,GI50,[40],0.328 µM (active)
same,GI50,[41],0.315 µM (active)
same,GI50,[67],0.776 µM (active)
